Reference: US20250313533A1, “QUINOLINE CARBOXYLIC ACID ESTER COMPOUND AND PREPARATION METHOD AND USE THEREOF” (priority 2019, published 2025)

Tests used:
[1] = system: pathogenic bacteria causing bacterial wilt in tobacco; assay: whole plant or invertebrate; type: cell-based, ralstonia; conditions: read-out: inhibitory rate
[2] = system: pathogenic bacteria causing bacterial angular leaf spot in cucumbers; assay: In vitro bactericidal activity, bacterial angular leaf spot in cucumbers; type: cell-based, pseudomonas; conditions: read-out: inhibitory rate; for inhibition at 1 ppm: dosage 1 ppm; for inhibition at 5 ppm: dosage 5 ppm
[3] = system: soft rot in Chinese cabbages; assay: whole plant or invertebrate; conditions: 48 h, read-out: efficacy against soft rot in Chinese cabbages
bacterial blight in rice = assay: whole plant or invertebrate; conditions: Oryza sativa, read-out: efficacy against bacterial blight in rice
[4] = system: pathogenic bacteria causing bacterial wilt in cassava; assay: organism not typed; type: cell-based; conditions: read-out: inhibitory rate
[5] = system: pathogenic bacteria causing fruit blotch in watermelons; assay: In vitro bactericidal activity, fruit blotch in watermelons; type: cell-based, acidovorax; conditions: read-out: inhibitory rate; for inhibition at 1 ppm: dosage 1 ppm; for inhibition at 5 ppm: dosage 5 ppm
black shank in potatoes = assay: Living crops in vivo protective activity, potatoes (root irrigation); conditions: Solanum tuberosum, read-out: efficacy against black shank in potatoes; for pest or weed control at 5 ppm: dosage 5 ppm; for pest or weed control at 10 ppm: dosage 10 ppm
Procedure: Root irrigation was carried out on the potatoes for tests according to the designed concentration of the agents. The dosage for each plant was 200 mL and was kept consistent (also for the control). The black shank bacteria were inoculated on the second day after the application. The results were investigated according to the disease condition.

[6] = system: pathogenic bacteria causing black rot in Chinese cabbages; assay: In vitro bactericidal activity, black rot in Chinese cabbages; type: cell-based, xanthomonas; conditions: Xanthomonas, read-out: inhibitory rate; for inhibition at 1 ppm: dosage 1 ppm; for inhibition at 5 ppm: dosage 5 ppm
[7] = system: pathogenic bacteria causing stem rot in sweet potatoes; assay: In vitro bactericidal activity, stem rot in sweet potatoes; type: cell-based, dikia; conditions: read-out: inhibitory rate; for inhibition at 1 ppm: dosage 1 ppm; for inhibition at 5 ppm: dosage 5 ppm
[8] = system: pathogenic bacteria causing fire blight in pears; assay: In vitro bactericidal activity, fire blight in pears; type: cell-based, erwinia; conditions: Erwinia, read-out: inhibitory rate; for inhibition at 1 ppm: dosage 1 ppm; for inhibition at 5 ppm: dosage 5 ppm
[9] = system: fruit blotch in watermelons; assay: whole plant or invertebrate; conditions: read-out: efficacy against fruit blotch in watermelons
[10] = system: indoor potted cucumber seedlings; assay: Effect of improving growth and development of crops; type: in vivo; design: Rate of growth rate increase (%): concentration or dose not given beside the values; conditions: versus blank control; for Rate of chlorophyll content increase (%) / Rate of leaf area increase (%): 14 days after application; for Rate of growth rate increase (%): plant height 14 days after application; for Rate of leaf area increase (%): second leaf
Procedure, shortened: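 Readouts: rate of increase in height growth, leaf area and SPAD chlorophyll content. Measurements were made before compound application and again 14 days afterwards, with leaf area computed from second-leaf dimensions.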

[11] = system: stem rot in sweet potatoes; assay: whole plant or invertebrate; conditions: read-out: efficacy against stem rot in sweet potatoes
[12] = system: bacterial wilt in tobacco; assay: whole plant or invertebrate; conditions: Nicotiana tabacum, read-out: efficacy against bacterial wilt in tobacco
[13] = system: pathogenic bacteria causing bacterial blight in rice; assay: whole plant or invertebrate; type: cell-based, xanthomonas; conditions: read-out: inhibitory rate
cucumber seedlings = assay: Safety for plant growth after application; type: in vivo; conditions: dosage 200 ppm
Procedure, shortened: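 Potted cucumber seedlings grown indoors; read-outs: plant-height growth rate, chlorophyll content, leaf area.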

[14] = system: pathogenic bacteria causing black shank in potatoes; assay: In vitro bactericidal activity, black shank in potatoes; type: cell-based; conditions: read-out: inhibitory rate; for inhibition at 1 ppm: dosage 1 ppm; for inhibition at 5 ppm: dosage 5 ppm

Compound	inhibition at 1 ppm [1]	inhibition at 5 ppm [1]	inhibition at 1 ppm [2]	inhibition at 5 ppm [2]	pest or weed control at 5 ppm [3]	pest or weed control at 10 ppm [3]	pest or weed control at 5 ppm (bacterial blight in rice)	pest or weed control at 10 ppm (bacterial blight in rice)	inhibition at 1 ppm [4]	inhibition at 5 ppm [4]	inhibition at 1 ppm [5]	inhibition at 5 ppm [5]	pest or weed control at 5 ppm (black shank in potatoes)	pest or weed control at 10 ppm (black shank in potatoes)	inhibition at 1 ppm [6]	inhibition at 5 ppm [6]	inhibition at 1 ppm [7]	inhibition at 5 ppm [7]	inhibition at 1 ppm [8]	inhibition at 5 ppm [8]	also measured
CCSc1cc2c(cc1F)c(=O)c(C(=O)OCCO)cn2C1CC1 [Compound 372]	≥ 90%	≥ 90%	≥ 90%	≥ 90%	≥ 90%	≥ 90%	≥ 90%	≥ 90%	≥ 90%	≥ 90%	≥ 90%	≥ 90%	≥ 90%	≥ 90%	≥ 90%	≥ 90%	≥ 90%	≥ 90%	≥ 90%	≥ 90%	pest or weed control at 5 ppm [9]: ≥ 90%; pest or weed control at 10 ppm [9]: ≥ 90%; Rate of chlorophyll content increase (%) [10]: 11%; Rate of growth rate increase (%) [10]: 8%; Rate of leaf area increase (%) [10]: 10%; pest or weed control at 5 ppm [11]: ≥ 90%; pest or weed control at 10 ppm [11]: ≥ 90%; pest or weed control at 5 ppm [12]: ≥ 90%; pest or weed control at 10 ppm [12]: ≥ 90%; inhibition at 1 ppm [13]: ≥ 90%; inhibition at 5 ppm [13]: ≥ 90%; safety for plant growth (discoloration, necrosis, wilt, malformation) (cucumber seedlings): safe for plant growth; inhibition at 1 ppm [14]: ≥ 90%; inhibition at 5 ppm [14]: ≥ 90%
CCSc1cc2c(cc1F)c(=O)c(C(=O)OCCOC)cn2C1CC1 [Compound 382]	≥ 90%	≥ 90%	≥ 90%	≥ 90%	≥ 90%	≥ 90%	≥ 90%	≥ 90%	≥ 90%	≥ 90%	≥ 90%	≥ 90%	≥ 90%	≥ 90%	≥ 90%	≥ 90%	≥ 90%	≥ 90%	≥ 90%	≥ 90%	pest or weed control at 5 ppm [9]: ≥ 90%; pest or weed control at 10 ppm [9]: ≥ 90%; Rate of chlorophyll content increase (%) [10]: 13%; Rate of growth rate increase (%) [10]: 10%; Rate of leaf area increase (%) [10]: 10%; pest or weed control at 5 ppm [11]: ≥ 90%; pest or weed control at 10 ppm [11]: ≥ 90%; pest or weed control at 5 ppm [12]: ≥ 90%; pest or weed control at 10 ppm [12]: ≥ 90%; inhibition at 1 ppm [13]: ≥ 90%; inhibition at 5 ppm [13]: ≥ 90%; safety for plant growth (discoloration, necrosis, wilt, malformation) (cucumber seedlings): safe for plant growth; inhibition at 1 ppm [14]: ≥ 90%; inhibition at 5 ppm [14]: ≥ 90%
COCCOC(=O)c1cn(C2CC2)c2cc(SCC(F)(F)F)c(F)cc2c1=O [Compound 390]	≥ 90%	≥ 90%	≥ 90%	≥ 90%	≥ 90%	≥ 90%	≥ 90%	≥ 90%	≥ 90%	≥ 90%	≥ 90%	≥ 90%	≥ 90%	≥ 90%	≥ 90%	≥ 90%	≥ 90%	≥ 90%	≥ 90%	≥ 90%	pest or weed control at 5 ppm [9]: ≥ 90%; pest or weed control at 10 ppm [9]: ≥ 90%; Rate of chlorophyll content increase (%) [10]: 17%; Rate of growth rate increase (%) [10]: 13%; Rate of leaf area increase (%) [10]: 15%; pest or weed control at 5 ppm [11]: ≥ 90%; pest or weed control at 10 ppm [11]: ≥ 90%; pest or weed control at 5 ppm [12]: ≥ 90%; pest or weed control at 10 ppm [12]: ≥ 90%; inhibition at 1 ppm [13]: ≥ 90%; inhibition at 5 ppm [13]: ≥ 90%; safety for plant growth (discoloration, necrosis, wilt, malformation) (cucumber seedlings): safe for plant growth; inhibition at 1 ppm [14]: ≥ 90%; inhibition at 5 ppm [14]: ≥ 90%
CNc1cc2c(cc1F)c(=O)c(C(=O)OCCO)cn2C1CC1 [Compound 400]	≥ 90%	≥ 90%	≥ 90%	≥ 90%	≥ 90%	≥ 90%	≥ 90%	≥ 90%	≥ 90%	≥ 90%	≥ 90%	≥ 90%	≥ 90%	≥ 90%	≥ 90%	≥ 90%	≥ 90%	≥ 90%	≥ 90%	≥ 90%	pest or weed control at 5 ppm [9]: ≥ 90%; pest or weed control at 10 ppm [9]: ≥ 90%; Rate of chlorophyll content increase (%) [10]: 17%; Rate of growth rate increase (%) [10]: 13%; Rate of leaf area increase (%) [10]: 18%; pest or weed control at 5 ppm [11]: ≥ 90%; pest or weed control at 10 ppm [11]: ≥ 90%; pest or weed control at 5 ppm [12]: ≥ 90%; pest or weed control at 10 ppm [12]: ≥ 90%; inhibition at 1 ppm [13]: ≥ 90%; inhibition at 5 ppm [13]: ≥ 90%; safety for plant growth (discoloration, necrosis, wilt, malformation) (cucumber seedlings): safe for plant growth; inhibition at 1 ppm [14]: ≥ 90%; inhibition at 5 ppm [14]: ≥ 90%
CNc1cc2c(cc1F)c(=O)c(C(=O)OCCOC)cn2C1CC1 [Compound 401]	≥ 90%	≥ 90%	≥ 90%	≥ 90%	≥ 90%	≥ 90%	≥ 90%	≥ 90%	≥ 90%	≥ 90%	≥ 90%	≥ 90%	≥ 90%	≥ 90%	≥ 90%	≥ 90%	≥ 90%	≥ 90%	≥ 90%	≥ 90%	pest or weed control at 5 ppm [9]: ≥ 90%; pest or weed control at 10 ppm [9]: ≥ 90%; Rate of chlorophyll content increase (%) [10]: 13%; Rate of growth rate increase (%) [10]: 10%; Rate of leaf area increase (%) [10]: 10%; pest or weed control at 5 ppm [11]: ≥ 90%; pest or weed control at 10 ppm [11]: ≥ 90%; pest or weed control at 5 ppm [12]: ≥ 90%; pest or weed control at 10 ppm [12]: ≥ 90%; inhibition at 1 ppm [13]: ≥ 90%; inhibition at 5 ppm [13]: ≥ 90%; safety for plant growth (discoloration, necrosis, wilt, malformation) (cucumber seedlings): safe for plant growth; inhibition at 1 ppm [14]: ≥ 90%; inhibition at 5 ppm [14]: ≥ 90%
CCNc1cc2c(cc1F)c(=O)c(C(=O)OCCO)cn2C1CC1 [Compound 407]	≥ 90%	≥ 90%	≥ 90%	≥ 90%	≥ 90%	≥ 90%	≥ 90%	≥ 90%	≥ 90%	≥ 90%	≥ 90%	≥ 90%	≥ 90%	≥ 90%	≥ 90%	≥ 90%	≥ 90%	≥ 90%	≥ 90%	≥ 90%	pest or weed control at 5 ppm [9]: ≥ 90%; pest or weed control at 10 ppm [9]: ≥ 90%; Rate of chlorophyll content increase (%) [10]: 15%; Rate of growth rate increase (%) [10]: 13%; Rate of leaf area increase (%) [10]: 11%; pest or weed control at 5 ppm [11]: ≥ 90%; pest or weed control at 10 ppm [11]: ≥ 90%; pest or weed control at 5 ppm [12]: ≥ 90%; pest or weed control at 10 ppm [12]: ≥ 90%; inhibition at 1 ppm [13]: ≥ 90%; inhibition at 5 ppm [13]: ≥ 90%; safety for plant growth (discoloration, necrosis, wilt, malformation) (cucumber seedlings): safe for plant growth; inhibition at 1 ppm [14]: ≥ 90%; inhibition at 5 ppm [14]: ≥ 90%
